Values after ≈ are worked out from the molar mass of the structure shown.
Assays:
Fingernail clam = assay: Static bioassay in invertebrates (Table 2); assay type: in vivo, Sphaerium sp.; conditions: 96 hours, tech, 17 C, limed spring water 22-36 mg/l hardness
Method: (§1) The effect of the various toxicants on common invertebrate species was determined in a static test conducted 17° C. The invertebrates tested were collected from natural populations or purchased from commercial suppliers. They were held in soft water in fiberglass tanks in the laboratory or in outdoor plastic swimming pools. Mortality was observed during holding, and only healthy organisms were used for the toxicity tests. At least 10 organisms of nine species were exposed to each concentration in static tests.

Bluegill [1] = assay: Outdoor plastic pool test (Table 3); assay type: in vivo, Lepomis macrochirus; conditions: for % kill: 96 hour, 50% formulation (hydrochloride salt)
Method: (§2) N-(2-hydroxyethyl) digeranylamine was tested as a selective fish toxicant in outdoor pools stocked with various fish species and lined with black plastic using 50% water soluble formulations (hydrochloride salt). The formulation was added to each of four pools of 4,000-liter capacity at concentrations of 0.10, 0.15, 0.20, and 0.30 mg/liter. Another pool containing the same number, size, and species of fish served as a control. The test water had algal blooms, a pH of about 8.5, and a total hardness of about 200 mg/liter as CaCo3. The temperature was cool enough (15°-16°C.) to permit the use of trout.
(§3) Fish were obtained from state and federal hatcheries and maintained prior to testing by a trained fish culturist. Fish of total length 2-5 cm were used in laboratory tests while for outdoor tests small fish (4-6 cm in length) and larger carp and buffalo (Ictiobus cyprinellus) were used.
(§4) In all tests 10 fish of each were exposed to selective concentrations of the toxicant. Mortalities were observed and recorded at 1,2 and 6 hours on the first day and once daily thereafter, during 96 hour exposure.
(§5) Outdoor pool tests were conducted using 50% formulation of the toxicant N-(2-hydroxyethyl) digeranylamine as indicated in Example 8. […] If selective control of white sucker and common carp is desired in an environment which includes rainbow trout, one should employ an effective concentration of toxicant which is at least as great as 0.05 mg/liter but less than 0.1 mg/liter. As a practical fishery practice in the northern United States and Canada, rainbow trout are not usually stocked in bodies of water containing the common carp species; the habitat conditions including water temperature and available oxygen of these species are usually quite different. Common carp and rainbow trout have quite different oxygen and temperature requirements and these differences generally preclude both species cohabitating under natural conditions. In this case the useful range to control common carp and white sucker can be much broader, i.e. 0.1 to 0.3 mg/liter.

Walleye [2] = assay: Laboratory fish toxicity test (Table 1); assay type: in vivo, Stizostedion vitreum; conditions: tech, 12 C, soft water
Method: as §3, §4
(§6) Laboratory tests were also conducted in soft water 12° C. wherein the toxicant was evaluated against fifteen species of fish including both cold and warm water varieties. In Table 1, the LC 50 toxicity values for N-(2-hydroxyethyl) digeranylamine is shown for various species. LC50 is defined as the amount (mg/liter) of toxicant required to kill 50 percent of the particular fish species at 95% confidence interval.

Lake trout = assay: Laboratory fish toxicity test (Table 1); assay type: in vivo, Salvelinus namaycush; conditions: tech, 12 C, soft water
Method: as §3, §4, §6

Carp = assay: Laboratory fish toxicity test (Table 1); assay type: in vivo, Cyprinus carpio; conditions: tech, 12 C, soft water
Method: as §3, §4, §6

Goldfish = assay: Outdoor plastic pool test (Table 3); assay type: in vivo, Carassius auratus; conditions: for % kill: 96 hour, 50% formulation (hydrochloride salt)
Method: as §2, §3, §4, §5

Black bullhead = assay: Outdoor plastic pool test (Table 3); assay type: in vivo, Ictalurus melas; conditions: for % kill: 96 hour, 50% formulation (hydrochloride salt)
Method: as §2, §3, §4, §5

Backswimmer = assay: Static bioassay in invertebrates (Table 2); assay type: in vivo, Notonecta sp.; conditions: tech, 17 C, soft reconstituted water 42 mg/l hardness
Method: as §1

Largemouth buffalo = assay: Outdoor plastic pool test (Table 3); assay type: in vivo, Ictibous cyprinellus; conditions: 96 hour, 50% formulation (hydrochloride salt)
Method: as §2, §3, §4, §5

Rainbow trout = assay: Laboratory fish toxicity test (Table 1); assay type: in vivo, Salmo gairdneri; conditions: tech, 12 C, soft water
Method: as §3, §4, §6

Smallmouth bass = assay: Laboratory fish toxicity test (Table 1); assay type: in vivo, Micropterus dolomieui; conditions: tech, 12 C, soft water
Method: as §3, §4, §6

Channel catfish = assay: Outdoor plastic pool test (Table 3); assay type: in vivo, Ictalurus punctatus; conditions: for % kill: 96 hour, 50% formulation (hydrochloride salt)
Method: as §2, §3, §4, §5

Largemouth bass = assay: Outdoor plastic pool test (Table 3); assay type: in vivo, Micropterus salmoides; conditions: for % kill: 96 hour, 50% formulation (hydrochloride salt)
Method: as §2, §3, §4, §5

Green sunfish = assay: Outdoor plastic pool test (Table 3); assay type: in vivo, Lepomis cyanellus; conditions: for % kill: 96 hour, 50% formulation (hydrochloride salt)
Method: as §2, §3, §4, §5

bluegill [3] = assay: Toxicity to bluegill in waters of different hardness; assay type: in vivo, bluegill (Lepomis macrochirus)
Method: The selective toxicant, N-(2-hydroxyethyl)digeranylamine was evaluated against bluegill in waters of hardness of 12, 44, 170, and 300 p.p.m., total hardness as CaCo3. […] In contrast the specific aminoalkanols of this invention are selective to carp (Caprinus carpio) and effective in waters of high pH.

Walleye [4] = assay: Outdoor plastic pool test (Table 3); assay type: in vivo, Sitzostedion vitreum; conditions: for % kill: 96 hour, 50% formulation (hydrochloride salt)
Method: as §2, §3, §4, §5

[5] = 96 hours, listed as N-(2-hydroxyethyl) Digeranylamine, 5760 min

For CC(C)=CCC/C(C)=C/CN(C/C=C(\C)CCC=C(C)C)CCO [N-(2-hydroxyethyl) digeranylamine], which LC50 (Fingernail clam) is on record?
Its LC50 is 11.5 µg/mL (≈ 34.5 µM).

What about the “% kill” value (Bluegill [1]; 0.10 mg/l) of the same compound?
Its value is 0%.

And the “% kill” value (Bluegill [1]; 0.15 mg/l)?
Its value is 0%.

And the “% kill” value (Bluegill [1]; 0.20 mg/l)?
Its value is 0%.

And the “% kill” value (Bluegill [1]; 0.30 mg/l)?
The value was 0%.

What about the “survival (in words)” value (Bluegill [1]; bluegill, 0.3 mg/liter, 50% formulation) of the same compound?
Its value is “complete survival”.

And the LC50 (Walleye [2]; 3 hours)?
Its LC50 is 2.78 µg/mL (≈ 8.33 µM).

What about the LC50 (Walleye [2]; 6 hours) of the same compound?
Its LC50 is 1.03 µg/mL (≈ 3.09 µM).

And the LC50 (Walleye [2]; 24 hours)?
Its LC50 is 0.346 µg/mL (≈ 1.04 µM).

And the LC50 (Walleye [2]; 96 hours)?
Its LC50 is 0.239 µg/mL (≈ 0.717 µM).

What about the LC50 (Lake trout; 3 hours) of the same compound?
The LC50 was 0.109 µg/mL (≈ 0.327 µM).

What about the LC50 (Lake trout; 6 hours) of the same compound?
Its LC50 is 0.0700 µg/mL (≈ 0.21 µM).

And the LC50 (Lake trout; 24 hours)?
Its LC50 is 0.0470 µg/mL (≈ 0.141 µM).

And the LC50 (Lake trout; 96 hours)?
Its LC50 is 0.0570 µg/mL (≈ 0.171 µM).

What about the LC50 (Carp; 6 hours) of the same compound?
The LC50 was 1.34 µg/mL (≈ 4.02 µM).

What about the LC50 (Carp; 24 hours) of the same compound?
The LC50 was 0.0718 µg/mL (≈ 0.215 µM).

What about the LC50 (Carp; 96 hours, 5760 min) of the same compound?
The LC50 was 0.050 µg/mL (≈ 0.15 µM).

And the LC50 (Carp; [5])?
Its LC50 is 0.0507 µg/mL (≈ 0.152 µM).

What about the “% kill” value (Goldfish; 0.10 mg/l) of the same compound?
The value was 0%.

And the “% kill” value (Goldfish; 0.15 mg/l)?
The value was 0%.

And the “% kill” value (Goldfish; 0.20 mg/l)?
The value was 0%.

What about the “% kill” value (Goldfish; 0.30 mg/l) of the same compound?
Its value is 0%.

What about the “survival (in words)” value (Goldfish; goldfish, 0.3 mg/liter, 50% formulation) of the same compound?
The value was “complete survival”.

And the “% kill” value (Black bullhead; 0.10 mg/l)?
Its value is 0%.

What about the “% kill” value (Black bullhead; 0.15 mg/l) of the same compound?
Its value is 0%.

And the “% kill” value (Black bullhead; 0.20 mg/l)?
The value was 0%.

What about the “% kill” value (Black bullhead; 0.30 mg/l) of the same compound?
Its value is 0%.

And the “survival (in words)” value (Black bullhead; black bullhead, 0.3 mg/liter, 50% formulation)?
The value was “complete survival”.

What about the LC50 (Backswimmer; 1 hour) of the same compound?
Its LC50 is 9.15 µg/mL (≈ 27.4 µM).

What about the LC50 (Backswimmer; 3 hour) of the same compound?
Its LC50 is 8.35 µg/mL (≈ 25 µM).

What about the LC50 (Backswimmer; 6 hours) of the same compound?
Its LC50 is 8.30 µg/mL (≈ 24.9 µM).

And the LC50 (Backswimmer; 28 hours)?
The LC50 was 4.90 µg/mL (≈ 14.7 µM).

What about the LC50 (Backswimmer; 96 hours) of the same compound?
Its LC50 is 3.45 µg/mL (≈ 10.3 µM).

And the “% kill” value (Largemouth buffalo; 0.10 mg/l)?
Its value is 0%.

What about the “% kill” value (Largemouth buffalo; 0.15 mg/l) of the same compound?
The value was 20%.

And the “% kill” value (Largemouth buffalo; 0.20 mg/l)?
The value was 20%.

What about the “% kill” value (Largemouth buffalo; 0.30 mg/l) of the same compound?
The value was 100%.

What about the LC50 (Rainbow trout; 3 hours) of the same compound?
Its LC50 is 0.220 µg/mL (≈ 0.66 µM).

What about the LC50 (Rainbow trout; 6 hours) of the same compound?
Its LC50 is 0.189 µg/mL (≈ 0.567 µM).

And the LC50 (Rainbow trout; 24 hours)?
Its LC50 is 0.187 µg/mL (≈ 0.561 µM).

And the LC50 (Rainbow trout; 96 hours)?
The LC50 was 0.136 µg/mL (≈ 0.408 µM).

And the LC50 (Smallmouth bass; 3 hours)?
The LC50 was 1.36 µg/mL (≈ 4.08 µM).

And the LC50 (Smallmouth bass; 6 hours)?
Its LC50 is 0.480 µg/mL (≈ 1.44 µM).

And the LC50 (Smallmouth bass; 24 hours)?
The LC50 was 0.420 µg/mL (≈ 1.26 µM).

And the LC50 (Smallmouth bass; 96 hours, 5760 min)?
The LC50 was 0.37 µg/mL (≈ 1.11 µM).

What about the LC50 (Smallmouth bass; [5]) of the same compound?
Its LC50 is 0.237 µg/mL (≈ 0.711 µM).

What about the “% kill” value (Channel catfish; 0.10 mg/l) of the same compound?
The value was 0%.

What about the “% kill” value (Channel catfish; 0.15 mg/l) of the same compound?
Its value is 0%.

And the “% kill” value (Channel catfish; 0.20 mg/l)?
Its value is 0%.

What about the “% kill” value (Channel catfish; 0.30 mg/l) of the same compound?
Its value is 40%.

What about the “survival (in words)” value (Channel catfish; channel catfish, 0.30 mg/liter and lower, 50% formulation) of the same compound?
The value was “died at 0.30 mg/liter of toxicant, but all survived lower concentrations”.

And the “% kill” value (Largemouth bass; 0.10 mg/l)?
Its value is 0%.

And the “% kill” value (Largemouth bass; 0.15 mg/l)?
Its value is 0%.

And the “% kill” value (Largemouth bass; 0.20 mg/l)?
Its value is 0%.

And the “% kill” value (Largemouth bass; 0.30 mg/l)?
Its value is 0%.

And the “survival (in words)” value (Largemouth bass; largemouth bass, 0.3 mg/liter, 50% formulation)?
Its value is “complete survival”.

And the “% kill” value (Green sunfish; 0.10 mg/l)?
The value was 0%.

What about the “% kill” value (Green sunfish; 0.15 mg/l) of the same compound?
The value was 0%.

And the “% kill” value (Green sunfish; 0.20 mg/l)?
Its value is 0%.

And the “% kill” value (Green sunfish; 0.30 mg/l)?
Its value is 0%.

And the “survival (in words)” value (Green sunfish; green sunfish, 0.3 mg/liter, 50% formulation)?
The value was “complete survival”.

And the “96-hour LC50” value (bluegill [3]; total hardness 12 p.p.m. as CaCo3)?
The value was 0.84 µg/mL.

And the “96-hour LC50” value (bluegill [3]; total hardness 44 p.p.m. as CaCo3)?
Its value is 0.72 µg/mL.

What about the “96-hour LC50” value (bluegill [3]; total hardness 170 p.p.m. as CaCo3) of the same compound?
Its value is 0.46 µg/mL.

What about the “96-hour LC50” value (bluegill [3]; total hardness 300 p.p.m. as CaCo3) of the same compound?
The value was 0.33 µg/mL.

What about the “% kill” value (Walleye [4]; 0.10 mg/l) of the same compound?
The value was 0%.

And the “% kill” value (Walleye [4]; 0.15 mg/l)?
The value was 10%.

And the “% kill” value (Walleye [4]; 0.20 mg/l)?
The value was 0%.

And the “% kill” value (Walleye [4]; 0.30 mg/l)?
Its value is 0%.

What about the “survival (in words)” value (Walleye [4]; walleye, 0.3 mg/liter, 50% formulation) of the same compound?
Its value is “complete survival”.
